Source: patent publication EP0626016B1, “[…] […]” (BRITISH TECHNOLOGY GROUP LIMITED, priority 1992, dated 1993)
Like-named read-outs stand apart in the source and are kept apart here. Blank lines part the entries; values can stand above or below the molecule they belong to.

How the values were obtained:
HRP = biological target: T1, HRP (Armoracia rusticana, UniProt P00433); test: CPA as enhancer of the luminol-H2O2-HRP reaction, Amerlite microplate reader (Example 9); assay type: biochemical, horseradish
T1 construct: purchased Sigma Chemical Co
T1 sequence (P00433 31-338): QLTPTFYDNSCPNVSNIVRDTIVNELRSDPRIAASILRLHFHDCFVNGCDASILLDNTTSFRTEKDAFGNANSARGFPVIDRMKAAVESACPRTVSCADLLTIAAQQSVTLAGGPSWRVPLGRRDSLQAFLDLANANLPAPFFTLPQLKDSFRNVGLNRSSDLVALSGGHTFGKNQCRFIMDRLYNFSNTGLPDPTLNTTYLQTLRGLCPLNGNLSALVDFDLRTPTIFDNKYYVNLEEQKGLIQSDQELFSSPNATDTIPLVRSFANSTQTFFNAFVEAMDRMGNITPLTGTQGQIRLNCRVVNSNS
Experimental: PBBA was added in various concentrations (range 0.05µg to 0.5µg) to a luminol-H2O2 reaction in the presence and absence of HRP. The luminol-hydrogen peroxide reagent was prepared as follows: sodium luminol (12.5mg) was dissolved in 50ml of Tris buffer (0.1mol/l, pH 8.6), and 15.5µl of hydrogen peroxide (30% w/v) was mixed with 0.5ml of Tris buffer (0.lmol/l, pH 8.6). These two solutions were combined and protected from light. The luminol-hydrogen peroxide reagent (100µl of a 1:10 dilution) was added to a cuvette together with either 10µl of HRP Type VI A (HRP, Sigma Chemical Co., 1:50,000 dilution) or as a control 10µl of Tris Buffer (0.1mol/l, pH 8.6), and various amounts of PBBA (Aldrich Chemical Co.), range 0.05µg-0.5µg in 0.1mol/l Tris, pH 8.6). The reagents were mixed and the light emission recorded after 5 minutes on a Berthold Biolumat LB9500C.
The experiment of Example 1 was repeated using CPA in place of PBBA. Various dilutions of CPA (Cookson Chemicals Ltd., Southampton, UK, […] in 1 mg/ml Tris buffer, pH 8.6) were used. […] "Amerlite" is a Registered Trade Mark.

HRP Type VIA = biological target: T2, HRP Type VIA (Armoracia rusticana, UniProt P00433); details: 10µl test compound; for (d) Signal: Background: ratio (control = with no enhancer): control value in brackets not reported
T2 sequence (P00433 31-338): T1 sequence (P00433 31-338)

Compound: O=C(O)C=Cc1ccc(B(O)O)cc1 [CPA, 4-(2-carboxyethenyl)phenylboronic acid]
Signal (no HRP) (HRP; CPA 0.01 µg): 0.094
Signal (with HRP) (HRP; CPA 0.01 µg): 0.41
Signal: Background ratio (HRP; CPA 0.01 µg): 4.4
Signal (no HRP) (HRP; CPA 0.02 µg): 0.09
Signal (with HRP) (HRP; CPA 0.02 µg): 0.46
Signal: Background ratio (HRP; CPA 0.02 µg): 5.1
Signal (no HRP) (HRP; CPA 0.05 µg): 0.09
Signal (with HRP) (HRP; CPA 0.05 µg): 0.68
Signal: Background ratio (HRP; CPA 0.05 µg): 7.6
Signal (no HRP) (HRP; CPA 0.1 µg): 0.09
Signal (with HRP) (HRP; CPA 0.1 µg): 1.23
Signal: Background ratio (HRP; CPA 0.1 µg): 14.2
Signal (no HRP) (HRP; CPA 0.2 µg): 0.08
Signal (with HRP) (HRP; CPA 0.2 µg): 2.37
Signal: Background ratio (HRP; CPA 0.2 µg): 28.2
Signal (no HRP) (HRP; CPA 0.5 µg): 0.07
Signal (with HRP) (HRP; CPA 0.5 µg): 4.57
Signal: Background ratio (HRP; CPA 0.5 µg): 63.4
Signal (no HRP) (HRP; CPA 1.0 µg): 0.06
Signal (with HRP) (HRP; CPA 1.0 µg): 5.58
Signal: Background ratio (HRP; CPA 1.0 µg): 93.0
Signal (no HRP) (HRP; CPA 10 µg): 0.02
Signal (with HRP) (HRP; CPA 10 µg): 2.49
Signal: Background ratio (HRP; CPA 10 µg): 124.9
Signal (no HRP) (HRP; CPA 20 µg): 0.003
Signal (with HRP) (HRP; CPA 20 µg): 0.88
Signal: Background ratio (HRP; CPA 20 µg): 43.9

Compound: O=C(O)c1ccc(B(O)O)cc1[N+](=O)[O-] [Compound 1045, 4-carboxy-3-nitrophenylboronic acid]
(a) Decrease in background (without HRP with test cpd.) (HRP Type VIA; 0.01 mg/ml): Y
(b) Increase in signal (with HRP, with test cpd.) (HRP Type VIA; 0.01 mg/ml): N
(c) Increase in signal: background ratio (HRP Type VIA; 0.01 mg/ml): N (N = no)
(d) Signal: Background: ratio (control = with no enhancer) (HRP Type VIA; 0.01 mg/ml): 2.2 (2.0)
(a) Decrease in background (without HRP with test cpd.) (HRP Type VIA; 0.1 mg/ml): Y
(b) Increase in signal (with HRP, with test cpd.) (HRP Type VIA; 0.1 mg/ml): Y
(c) Increase in signal: background ratio (HRP Type VIA; 0.1 mg/ml): Y (Column (c) shows whether there was an increase in the signal:background ratio by over 25% of the control value (Y = yes)
(d) Signal: Background: ratio (control = with no enhancer) (HRP Type VIA; 0.1 mg/ml): 18.1 (2.8)
(a) Decrease in background (without HRP with test cpd.) (HRP Type VIA; 1 mg/ml): Y
(b) Increase in signal (with HRP, with test cpd.) (HRP Type VIA; 1 mg/ml): N
(c) Increase in signal: background ratio (HRP Type VIA; 1 mg/ml): Y (Column (c) shows whether there was an increase in the signal:background ratio by over 25% of the control value (Y = yes)
(d) Signal: Background: ratio (control = with no enhancer) (HRP Type VIA; 1 mg/ml): 68.5 (4.5)

Compound: c1ccc2c(OB(Oc3cccc4ccccc34)c3cccc4ccccc34)cccc2c1 [Compound 1047, di-(1-naphthoxy)-l-naphthylborane]
(a) Decrease in background (without HRP with test cpd.) (HRP Type VIA; 0.01 mg/ml): Y
(b) Increase in signal (with HRP, with test cpd.) (HRP Type VIA; 0.01 mg/ml): N
(c) Increase in signal: background ratio (HRP Type VIA; 0.01 mg/ml): N (N = no)
(a) Decrease in background (without HRP with test cpd.) (HRP Type VIA; 0.1 mg/ml): Y
(b) Increase in signal (with HRP, with test cpd.) (HRP Type VIA; 0.1 mg/ml): N
(c) Increase in signal: background ratio (HRP Type VIA; 0.1 mg/ml): N (N = no)
(a) Decrease in background (without HRP with test cpd.) (HRP Type VIA; 1 mg/ml): Y
(b) Increase in signal (with HRP, with test cpd.) (HRP Type VIA; 1 mg/ml): N
(c) Increase in signal: background ratio (HRP Type VIA; 1 mg/ml): N (N = no)

The next lines start with the values.

(a) Decrease in background (without HRP with test cpd.) (HRP Type VIA; 0.01 mg/ml): Y
(b) Increase in signal (with HRP, with test cpd.) (HRP Type VIA; 0.01 mg/ml): N
(c) Increase in signal: background ratio (HRP Type VIA; 0.01 mg/ml): N (N = no)
(a) Decrease in background (without HRP with test cpd.) (HRP Type VIA; 0.1 mg/ml): Y
(b) Increase in signal (with HRP, with test cpd.) (HRP Type VIA; 0.1 mg/ml): N
(c) Increase in signal: background ratio (HRP Type VIA; 0.1 mg/ml): N (N = no)
(d) Signal: Background: ratio (control = with no enhancer) (HRP Type VIA; 0.1 mg/ml): 3.2 (2.9)
(a) Decrease in background (without HRP with test cpd.) (HRP Type VIA; 1 mg/ml): Y
(b) Increase in signal (with HRP, with test cpd.) (HRP Type VIA; 1 mg/ml): N
(c) Increase in signal: background ratio (HRP Type VIA; 1 mg/ml): N (N = no)
Compound: BrCc1ccccc1OB(Oc1ccccc1CBr)c1ccccc1CBr [Compound 1049, 2-boromethylphenyl-di-(2'-boromethylphenoxy)borane]

(a) Decrease in background (without HRP with test cpd.) (HRP Type VIA; 0.01 mg/ml): Y
(b) Increase in signal (with HRP, with test cpd.) (HRP Type VIA; 0.01 mg/ml): N
(c) Increase in signal: background ratio (HRP Type VIA; 0.01 mg/ml): N (N = no)
(a) Decrease in background (without HRP with test cpd.) (HRP Type VIA; 0.1 mg/ml): Y
(b) Increase in signal (with HRP, with test cpd.) (HRP Type VIA; 0.1 mg/ml): N
(c) Increase in signal: background ratio (HRP Type VIA; 0.1 mg/ml): N (N = no)
(d) Signal: Background: ratio (control = with no enhancer) (HRP Type VIA; 0.1 mg/ml): 3.3 (2.9)
(a) Decrease in background (without HRP with test cpd.) (HRP Type VIA; 1 mg/ml): Y
(b) Increase in signal (with HRP, with test cpd.) (HRP Type VIA; 1 mg/ml): N
(c) Increase in signal: background ratio (HRP Type VIA; 1 mg/ml): N (N = no)
Compound: CSCc1ccccc1B(O)O [Compound 1050, 2-(methylthiomethyl)phenylboronic acid]
